From patent publication US20240228469A1, “PCSK9 INHIBITORS AND METHODS OF USE THEREOF” (AstraZeneca AB, priority 2022, published 2024)

Experiments:
[1] = target: T1, potassium ion channel hERG (Homo sapiens, UniProt Q12809); assay: Assay 5 hERG assay (patch clamp, CHO cells over-expressing hERG); format: cell-based; conditions: SyncroPatch 384PE, room temperature, geometric mean, read-out: Assay 5 (hERG Hu CHO if EPh CR-Syncro) GMean IC50
T1 construct: expressed in transfected cells; host or cells: Chinese hamster ovary K1 (CHO)
T1 sequence (Q12809 whole entry): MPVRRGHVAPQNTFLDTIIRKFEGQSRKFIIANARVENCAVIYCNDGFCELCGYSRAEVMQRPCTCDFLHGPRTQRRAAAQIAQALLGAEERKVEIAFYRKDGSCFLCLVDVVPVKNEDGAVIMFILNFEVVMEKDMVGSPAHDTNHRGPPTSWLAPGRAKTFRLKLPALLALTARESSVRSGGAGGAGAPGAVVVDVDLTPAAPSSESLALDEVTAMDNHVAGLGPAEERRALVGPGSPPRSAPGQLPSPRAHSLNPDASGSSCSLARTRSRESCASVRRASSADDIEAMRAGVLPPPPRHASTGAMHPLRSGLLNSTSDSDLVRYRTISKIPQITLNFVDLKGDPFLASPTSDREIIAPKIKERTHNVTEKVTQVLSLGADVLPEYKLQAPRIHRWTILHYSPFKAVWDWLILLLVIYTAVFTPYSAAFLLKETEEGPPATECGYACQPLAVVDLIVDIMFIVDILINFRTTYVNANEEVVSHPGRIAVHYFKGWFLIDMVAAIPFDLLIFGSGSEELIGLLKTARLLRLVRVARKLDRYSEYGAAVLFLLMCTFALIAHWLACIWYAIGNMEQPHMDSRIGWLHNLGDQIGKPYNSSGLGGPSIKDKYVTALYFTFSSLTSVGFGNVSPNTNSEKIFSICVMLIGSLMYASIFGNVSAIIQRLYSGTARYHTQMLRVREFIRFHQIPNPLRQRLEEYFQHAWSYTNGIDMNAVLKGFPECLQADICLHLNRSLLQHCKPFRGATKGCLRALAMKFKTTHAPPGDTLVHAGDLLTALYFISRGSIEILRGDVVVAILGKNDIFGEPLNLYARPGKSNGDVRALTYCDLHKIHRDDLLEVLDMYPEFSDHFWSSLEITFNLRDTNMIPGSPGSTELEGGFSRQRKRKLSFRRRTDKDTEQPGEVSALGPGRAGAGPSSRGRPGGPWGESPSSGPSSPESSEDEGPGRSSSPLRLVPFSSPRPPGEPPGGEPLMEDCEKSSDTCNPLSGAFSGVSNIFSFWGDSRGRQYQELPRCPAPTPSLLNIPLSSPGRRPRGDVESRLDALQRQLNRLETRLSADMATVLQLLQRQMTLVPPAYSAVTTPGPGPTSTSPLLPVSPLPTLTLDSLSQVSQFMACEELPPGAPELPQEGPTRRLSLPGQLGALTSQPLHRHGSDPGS
Outline: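 hERG currents recorded by automated patch clamp at room temperature in CHO-K1 cells, 6-point cumulative concentrations. SyncroPatch runs used KF-based internal (pH 7.2) and NMDG-containing external solution (pH 7.4), 0.33% DMSO; QPatchII runs used 2% or 0.4% DMSO. Only wells meeting seal-resistance and current-size criteria kept.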

[2] = target: GSK3β (Glycogen synthase kinase-3 beta) (Homo sapiens, UniProt P49841); assay: Assay 6 GSK3β assay (ThermoFisher Z-Lyte FRET); format: biochemical; conditions: ATP Conc: 10 μM, geometric mean; read-out: Assay 6 (GSK3β FRET-Z-Lyte Cr) GMean IC50
Chain of GSK3β (Glycogen synthase kinase-3 beta) (P49841 whole entry): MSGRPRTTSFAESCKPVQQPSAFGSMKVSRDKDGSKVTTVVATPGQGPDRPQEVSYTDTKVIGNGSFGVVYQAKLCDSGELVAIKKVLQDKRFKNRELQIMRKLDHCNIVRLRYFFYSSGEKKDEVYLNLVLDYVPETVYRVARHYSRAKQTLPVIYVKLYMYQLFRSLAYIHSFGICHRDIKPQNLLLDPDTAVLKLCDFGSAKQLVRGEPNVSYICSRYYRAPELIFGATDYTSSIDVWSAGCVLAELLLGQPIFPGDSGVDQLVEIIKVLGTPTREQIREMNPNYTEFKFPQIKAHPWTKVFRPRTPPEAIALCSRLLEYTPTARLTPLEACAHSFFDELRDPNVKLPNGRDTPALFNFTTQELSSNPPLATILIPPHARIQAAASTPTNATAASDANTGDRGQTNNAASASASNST
Outline: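 Z-Lyte FRET: 0.22-0.92 ng kinase with 2 μM Ser/Thr 09 peptide in HEPES pH 7.5, MgCl2, EGTA, 60 min at room temperature, then 60 min development. Compounds in 1% DMSO, 10-point 3-fold series from 10 μM; sigmoidal dose-response fit.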

PCSK9 [3] = target: T2, PCSK9 (Homo sapiens, UniProt Q8NBP7, G670E/V474I); assay: biochemical
T2 sequence (Q8NBP7 with tags, fused parts or gaps V474I/G670E): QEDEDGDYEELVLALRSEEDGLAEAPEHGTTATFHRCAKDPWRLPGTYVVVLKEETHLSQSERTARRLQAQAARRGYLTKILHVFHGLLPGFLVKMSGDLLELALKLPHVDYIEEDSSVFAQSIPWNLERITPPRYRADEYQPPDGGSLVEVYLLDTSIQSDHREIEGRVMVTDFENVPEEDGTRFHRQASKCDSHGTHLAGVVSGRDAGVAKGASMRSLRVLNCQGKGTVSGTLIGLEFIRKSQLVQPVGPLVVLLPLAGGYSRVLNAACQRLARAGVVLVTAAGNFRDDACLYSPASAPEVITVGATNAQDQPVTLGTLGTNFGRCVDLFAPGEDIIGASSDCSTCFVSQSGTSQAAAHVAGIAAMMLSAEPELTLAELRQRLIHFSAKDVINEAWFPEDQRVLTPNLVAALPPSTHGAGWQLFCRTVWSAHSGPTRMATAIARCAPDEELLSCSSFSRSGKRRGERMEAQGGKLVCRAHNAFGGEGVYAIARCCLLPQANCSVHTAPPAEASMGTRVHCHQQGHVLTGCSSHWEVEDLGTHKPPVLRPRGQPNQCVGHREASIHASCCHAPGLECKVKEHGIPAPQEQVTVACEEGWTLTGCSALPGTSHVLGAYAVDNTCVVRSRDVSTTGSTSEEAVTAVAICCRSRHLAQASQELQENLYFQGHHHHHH

PCSK9 [4] = target: T2, PCSK9; assay: Assay 3 PCSK9 LDL-C uptake assay in HepG2 cells; format: cell-based; set-up: TEV site (C); His6 (C); host or cells: added to HepG2 (ATCC #HB-8065); conditions: 125 nM PCSK9, pHrodo Red-LDL, read-out: Assay 3 LDL uptake potency
Description: This assay measures for PCSK9 antagonist activity based on a test compound's capacity to restore LDL-C-uptake in HepG2 cells. The assay is based on exogenous PCSK9 and LDL-C complexed with a pH-sensitive dye. Outside the cells, at neutral pH, the pHrodo Red-LDL is dimly fluorescent but upon LDLR mediated endocytosis it fluoresces brightly. PCSK9 traffics the LDLR to intracellular degradation and reduces uptake of LDL-C. Inhibition of PCSK9 reduces LDLR degradation and the increased LDL-C uptake is quantified by fluorescence microscopy.
• Cell medium: MEM supplemented with 10% FBS, 1×NEAA and Sodium Pyruvate • Assay medium: OptiMem supplemented with penicillin/streptomycin • Cells: HepG2 (ATCC #HB-8065)
• 1. Cryopreserved HepG2 cells were thawed in assay medium and centrifuged for 5 min at 250 g. Supernatant was discarded and the cell pellet resuspended in cell medium and counted with a Nucleocounter. Cells were again centrifuged 5 min at 250 g and the pellet was resuspended to 500000 cells/mL in assay medium. • 2. 20 μL of above cell mix was dispensed into black μclear TC treated 384 well plates with Multidrop Combi and left at room temperature for 20 minutes. • 3. Plates were incubated at 37° C., 5% CO2 for 24 h
• 1. Test compounds were prepared in concentration response in DMSO with a half-log dilution factor in DMSO in Echo 384 LDV plates starting at 10 mM. • 2. 30 nL of above test compounds were dispensed with Echo 655 to cells for a top concentration of 10 μM • 3. 10 μL PCSK9 in assay medium was dispensed to cells with Multidrop Combi for 125 nM final concentration in the wells. • 4. Plates were incubated at 37° C., 5% CO2 for 24 h
• 1. 10 μL pHrodo Red-LDL in assay medium was dispensed to cells with Multidrop Combi for […] • 2. Plates were incubated at 37° C., 5% CO2 and imaged with the Incucyte S3 after 4 h and 24 h
Image data was processed using Incucyte 2021, a software to identify cells and red fluorescent intensity. Screener was used to further process data. Data was normalized as % effect of the signal between median values of the on-plate controls of DMSO and 100 nM Evolocumab according to the formula % effect=−100*(x−DMSO)/(Evolocumab−DMSO) where x equals the measured signal. Concentration response data of the normalized values were fitted using a four-parameter logistic fit.

COc1cccn(-c2ccc(N[C@H]3CC[C@H](Nc4ncc(C(=O)NC5COC5)nn4)C3)nc2)c1=O [Example 153, 3-(((1S,3S)-3-((3-Methoxy-2-oxo-2H-[1,3′-bipyridin]-6′-yl)amino)cyclopentyl)amino)-N-(oxetan-3-yl)-1,2,4-triazine-6-carboxamide]
IC50 [1]: > 40100 nM
IC50 [2]: > 10000 nM
IC50 (PCSK9 [3]): 3.3 nM
EC50 (PCSK9 [4]): 100 nM

COc1ccc(=O)n(-c2ccc(N[C@H]3CC[C@H](Nc4ncc(C(=O)NC5COC5)nn4)C3)nc2)c1 [Example 154, 3-(((1S,3S)-3-((5-Methoxy-2-oxo-2H-[1,3′-bipyridin]-6′-yl)amino)cyclopentyl)amino)-N-(oxetan-3-yl)-1,2,4-triazine-6-carboxamide]
IC50 [1]: > 40100 nM
IC50 [2]: 3900 nM
IC50 (PCSK9 [3]): 14 nM
EC50 (PCSK9 [4]): 200 nM

Cc1cccn(-c2ccc(N[C@H]3CC[C@H](Nc4ncc(C(=O)NC5COC5)nn4)C3)nc2)c1=O [Example 155, 3-(((1S,3S)-3-((3-Methyl-2-oxo-2H-[1,3′-bipyridin]-6′-yl)amino)cyclopentyl)amino)-N-(oxetan-3-yl)-1,2,4-triazine-6-carboxamide]
IC50 [1]: > 40100 nM
IC50 [2]: > 10000 nM
IC50 (PCSK9 [3]): 2.7 nM
EC50 (PCSK9 [4]): 100 nM

Cc1ccc(=O)n(-c2ccc(N[C@H]3CC[C@H](Nc4ncc(C(=O)NC5COC5)nn4)C3)nc2)c1 [Example 156, 3-(((1S,3S)-3-((5-Methyl-2-oxo-2H-[1,3′-bipyridin]-6′-yl)amino)cyclopentyl)amino)-N-(oxetan-3-yl)-1,2,4-triazine-6-carboxamide]
IC50 [1]: > 40100 nM
IC50 [2]: > 10000 nM
IC50 (PCSK9 [3]): 14 nM
EC50 (PCSK9 [4]): 100 nM

O=C(NC1COC1)c1cnc(N[C@H]2CC[C@H](Nc3ccc(-n4cccc(Cl)c4=O)cn3)C2)nn1 [Example 157, 3-(((1S,3S)-3-((3-Chloro-2-oxo-2H-[1,3′-bipyridin]-6′-yl)amino)cyclopentyl)amino)-N-(oxetan-3-yl)-1,2,4-triazine-6-carboxamide]
IC50 [1]: > 40100 nM
IC50 [2]: 7780 nM
IC50 (PCSK9 [3]): 2.1 nM
EC50 (PCSK9 [4]): 100 nM

O=C(NC1COC1)c1cnc(N[C@H]2CC[C@H](Nc3ccc(-n4cc(Cl)ccc4=O)cn3)C2)nn1 [Example 158, 3-(((1S,3S)-3-((5-Chloro-2-oxo-2H-[1,3′-bipyridin]-6′-yl)amino)cyclopentyl)amino)-N-(oxetan-3-yl)-1,2,4-triazine-6-carboxamide]
IC50 [1]: > 40100 nM
IC50 [2]: > 10000 nM
IC50 (PCSK9 [3]): 7.6 nM
EC50 (PCSK9 [4]): 200 nM

N#Cc1cccn(-c2ccc(N[C@H]3CC[C@H](Nc4ncc(C(=O)NC5COC5)nn4)C3)nc2)c1=O [Example 159, 3-(((1S,3S)-3-((3-Cyano-2-oxo-2H-[1,3′-bipyridin]-6′-yl)amino)cyclopentyl)amino)-N-(oxetan-3-yl)-1,2,4-triazine-6-carboxamide]
IC50 [1]: > 40100 nM
IC50 [2]: > 10000 nM
IC50 (PCSK9 [3]): 4.1 nM
EC50 (PCSK9 [4]): 100 nM

O=C(NC1COC1)c1cnc(N[C@H]2CC[C@H](Nc3ccc(-n4cccc(OC(F)(F)F)c4=O)cn3)C2)nn1 [Example 160, N-(Oxetan-3-yl)-3-(((1S,3S)-3-((2-oxo-3-(trifluoromethoxy)-2H-[1,3′-bipyridin]-6′-yl)amino)cyclopentyl)amino)-1,2,4-triazine-6-carboxamide]
IC50 [1]: > 40100 nM
IC50 [2]: > 10000 nM
IC50 (PCSK9 [3]): 6.9 nM
EC50 (PCSK9 [4]): 200 nM

O=C(NC1COC1)c1cnc(N[C@H]2CC[C@H](Nc3ccc(-n4cccc(C(F)(F)F)c4=O)cn3)C2)nn1 [Example 161, N-(Oxetan-3-yl)-3-(((1S,3S)-3-((2-oxo-3-(trifluoromethyl)-2H-[1,3′-bipyridin]-6′-yl)amino)cyclopentyl)amino)-1,2,4-triazine-6-carboxamide]
IC50 [1]: > 40100 nM
IC50 [2]: > 10000 nM
IC50 (PCSK9 [3]): 3.8 nM
EC50 (PCSK9 [4]): 100 nM

O=c1c(OC(F)F)cccn1-c1ccc(N[C@H]2CC[C@H](Nc3ncc(C4CC4)nn3)C2)nc1 [Example 165, 6′-(((1S,3S)-3-((6-Cyclopropyl-1,2,4-triazin-3-yl)amino)cyclopentyl)amino)-3-(difluoromethoxy)-2H-[1,3′-bipyridin]-2-one]
IC50 [1]: 25500 nM
IC50 [2]: 5100 nM
IC50 (PCSK9 [3]): 1.3 nM
EC50 (PCSK9 [4]): 100 nM

O=c1ccc(OC(F)F)cn1-c1ccc(N[C@H]2CC[C@H](Nc3ncc(C4CC4)nn3)C2)nc1 [Example 166, 6′-(((1S,3S)-3-((6-Cyclopropyl-1,2,4-triazin-3-yl)amino)cyclopentyl)amino)-5-(difluoromethoxy)-2H-[1,3′-bipyridin]-2-one]
IC50 [1]: 38200 nM
IC50 [2]: 2200 nM
IC50 (PCSK9 [3]): 7.2 nM
EC50 (PCSK9 [4]): 300 nM

COc1ccn(-c2ccc(N[C@H]3CC[C@H](Nc4ncc(C)nn4)C3)nc2)c(=O)c1 [Example 180, 4-Methoxy-6′-(((1S,3S)-3-((6-methyl-1,2,4-triazin-3-yl)amino)cyclopentyl)amino)-2H-[1,3′-bipyridin]-2-one]
IC50 [1]: > 40100 nM
IC50 [2]: > 10000 nM
IC50 (PCSK9 [3]): 6 nM
EC50 (PCSK9 [4]): 300 nM

Cc1cnc(N[C@H]2CC[C@H](Nc3ccc(-n4ccc(Cl)cc4=O)cn3)C2)nn1 [Example 182, 4-Chloro-6′-(((1S,3S)-3-((6-methyl-1,2,4-triazin-3-yl)amino)cyclopentyl)amino)-2H-[1,3′-bipyridin]-2-one]
IC50 [1]: > 40100 nM
IC50 [2]: > 10000 nM
IC50 (PCSK9 [3]): 9.4 nM
EC50 (PCSK9 [4]): 600 nM

Cc1cnc(N[C@H]2CC[C@H](Nc3ccc(-n4cc(OC(F)F)ccc4=O)cn3)C2)nn1 [Example 185, 5-(Difluoromethoxy)-6′-(((1S,3S)-3-((6-methyl-1,2,4-triazin-3-yl)amino)cyclopentyl)amino)-2H-[1,3′-bipyridin]-2-one]
IC50 [1]: > 40100 nM
IC50 [2]: 2420 nM
IC50 (PCSK9 [3]): 13 nM
EC50 (PCSK9 [4]): 200 nM

Cc1cnc(N[C@H]2CC[C@H](Nc3ccc(-n4cccc(-c5cn[nH]c5)c4=O)cn3)C2)nn1 [Example 199, 6′-(((1S,3S)-3-((6-Methyl-1,2,4-triazin-3-yl)amino)cyclopentyl)amino)-3-(1H-pyrazol-4-yl)-2H-[1,3′-bipyridin]-2-one]
IC50 [1]: > 40100 nM
IC50 [2]: > 10000 nM
IC50 (PCSK9 [3]): 2 nM
EC50 (PCSK9 [4]): 100 nM

Cc1cnc(N[C@H]2CC[C@H](Nc3ccc(-n4cccc(-c5c[nH]nn5)c4=O)cn3)C2)nn1 [Example 200, 6′-(((1S,3S)-3-((6-Methyl-1,2,4-triazin-3-yl)amino)cyclopentyl)amino)-3-(1H-1,2,3-triazol-4-yl)-2H-[1,3′-bipyridin]-2-one]
IC50 [1]: > 40100 nM
IC50 [2]: > 10000 nM
IC50 (PCSK9 [3]): 2.5 nM
EC50 (PCSK9 [4]): 100 nM

Cc1cnc(N[C@H]2CC[C@H](Nc3ccc(-n4cc(-c5cnn(C)c5)ccc4=O)cn3)C2)nn1 [Example 201, 6′-(((1S,3S)-3-((6-Methyl-1,2,4-triazin-3-yl)amino)cyclopentyl)amino)-5-(1-methyl-1H-pyrazol-4-yl)-2H-[1,3′-bipyridin]-2-one]
IC50 [1]: > 40100 nM
IC50 [2]: 2380 nM
IC50 (PCSK9 [3]): 8.6 nM
EC50 (PCSK9 [4]): 200 nM

Cc1cnc(N[C@H]2CC[C@H](Nc3ccc(-n4cc(-c5cn[nH]c5)ccc4=O)cn3)C2)nn1 [Example 202, 6′-(((1S,3S)-3-((6-Methyl-1,2,4-triazin-3-yl)amino)cyclopentyl)amino)-5-(1H-pyrazol-4-yl)-2H-[1,3′-bipyridin]-2-one]
IC50 [1]: > 40100 nM
IC50 [2]: 7660 nM
IC50 (PCSK9 [3]): 3.7 nM
EC50 (PCSK9 [4]): 100 nM
